For 25 molecules, IC50 results are on record in patent US10669283B2, “Compound and pharmacologically acceptable salt thereof” (MEIJI SEIKA PHARMA CO., LTD., priority 2016, dated 2020).

The test system of the first assay is PDE4. In words: PDE4 inhibition, scintillation proximity assay (SPA).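 For PDE4 Inhibitory Activity (concentration for the inhibition rate of 50%): A below 100 nM B 100 to below 1000 nM C 1000 nM or more.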 The settings on record: scintillation proximity assay (SPA); evaluated as classes A, B, C; read-out: PDE4 Inhibitory Activity (concentration for the inhibition rate of 50%). Format: biochemical. The essentials: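 Compound pre-diluted 1:10 in 50 mM Tris-HCl pH 7.4, 8.3 mM MgCl2, 1.7 mM EGTA, 3 mg/mL BSA, then incubated with PDE4 and [2,8-3H]-cAMP for 120 min at room temperature. Product captured on ZnSO4-containing YSi-SPA beads for 15 min; radioactivity counted against no-enzyme blank and DMSO control.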
On the technique in general: Scintillation proximity formats need no separation of bound from free tracer.
As to `O=C(O)c1cc(-c2nccs2)c2oc(N3CC4CC(C3)N4)nc2c1OC(F)(F)F` [Example 190, 2-(3,6-Diazabicyclo[3.1.1]heptan-3-yl)-7-(thiazol-2-yl)-4-(trifluoromethoxy)benzo[d]oxazole-5-carboxylic acid], the IC50 is > 1000 nM.

Consider `CC(C)(O)C(Oc1ccc(-c2nccs2)c2oc(N3CC4CC(C3)N4)nc12)C(F)(F)F` (stereo not shown) [Example 313, 3-((2-(3,6-Diazabicyclo[3.1.1]heptan-3-yl)-7-(thiazol-2-yl)benzo[d]oxazol-4-yl)oxy)-4,4,4-trifluoro-2-methylbutan-2-ol], for which the IC50 was < 100 nM. The same measure, in the same setting: next, `Oc1ccc(-c2nccs2)c2oc(N3CC4CCCC(C3)N4)nc12` [Example 80, 2-(3,9-Diazabicyclo[3.3.1]nonan-3-yl)-7-(thiazol-2-yl) benzo[d]oxazol-4-ol]: < 100 nM; `N#CCOc1ccc(-c2nccs2)c2oc(N3CC4CCC(C3)N4)nc12` [Example 82, 2-((2-(3,8-Diazabicyclo[3.2.1]octan-3-yl)-7-(thiazol-2-yl)benzo[d]oxazol-4-yl)oxy)acetonitrile]: < 100 nM; `O=C(c1cc(-c2nccs2)c2oc(N3CC4CCC(C3)N4)nc2c1OC(F)(F)F)N1CCC1` [Example 192, (2-(3,8-Diazabicyclo[3.2.1]octan-3-yl)-7-(thiazol-2-yl)-4-(trifluoromethoxy)benzo[d]oxazol-5-yl) (azetidin-1-yl)methanone]: < 100 nM. On the same count and under the same terms, next, `COC(c1cc(-c2nccs2)c2oc(N3CC4CCC(C3)N4)nc2c1OC(F)(F)F)C(F)F` (stereo not shown) [Example 209, 2-(3,8-Diazabicyclo[3.2.1]octan-3-yl)-5-(2,2-difluoro-1-methoxyethyl)-7-(thiazol-2-yl)-4-(trifluoromethoxy)benzo[d]oxazole]: < 100 nM; `COc1ccc(-c2nccs2)c2oc(N3CC4CCC(C3)N4)nc12` [Example 75, 2-(3,8-Diazabicyclo[3.2.1]octan-3-yl)-4-methoxy-7-(thiazol-2-yl)benzo[d]oxazole]: < 100 nM; `OC(c1cc(-c2cscn2)c2oc(N3CC4CCC(C3)N4)nc2c1OC(F)(F)F)C(F)F` (stereo not shown) [Example 302, 1-(2-(3,8-Diazabicyclo[3.2.1]octan-3-yl)-7-(thiazol-4-yl)-4-(trifluoromethoxy)benzo[d]oxazol-5-yl)-2,2-difluoroethan-1-ol]: < 100 nM. Same read-out and setting: the value for `CSc1cc(-c2nccs2)c2oc(N3CC4CCC(C3)N4)nc2c1` [Example 39, 2-(3,8-Diazabicyclo[3.2.1]octan-3-yl)-5-(methylthio)-7-(thiazol-2-yl)benzo[d]oxazole] was < 100 nM.

With `FC(F)(F)Oc1c(Cl)cc(-c2ccccn2)c2oc(N3CC4CCC(C3)N4)nc12` [Example 7, 2-(3,8-Diazabicyclo[3.2.1]octan-3-yl)-5-chloro-7-(pyridin-2-yl)-4-(trifluoromethoxy)benzo[d]oxazole], the IC50 is < 100 nM. The same measure, in the same setting: next, `CC(=O)c1cc(-c2nccs2)c2oc(N3CC4CCC(C3)N4)nc2c1` [Example 108, 1-(2-(3,8-Diazabicyclo[3.2.1]octan-3-yl)-7-(thiazol-2-yl)benzo[d]oxazol-5-yl)ethan-1-one]: < 100 nM; `CC(O)(c1ccc(-c2nccs2)c2oc(N3CC4CC(C3)N4)nc12)C(F)(F)F` (stereo not shown) [Example 270, 2-(2-(3,6-Diazabicyclo[3.1.1]heptan-3-yl)-7-(thiazol-2-yl)benzo[d]oxazol-4-yl)-1,1,1-trifluoropropan-2-ol]: < 100 nM; `COC(c1ccc(-c2nccs2)c2oc(N3CC4CC(C3)N4)nc12)C(F)(F)F` (stereo not shown) [Example 122, 2-(3,6-Diazabicyclo[3.1.1]heptan-3-yl)-7-(thiazol-2-yl)-4-(2,2,2-trifluoro-1-methoxyethyl)benzo[d]oxazole]: < 100 nM. Same read-out and setting: the value for `OCc1cc(-c2nccs2)c2oc(N3CC4CCC(C3)N4)nc2c1C(F)(F)F` [Example 170, (2-(3,8-Diazabicyclo[3.2.1]octan-3-yl)-7-(thiazol-2-yl)-4-(trifluoromethyl)benzo[d]oxazol-5-yl)methanol] was < 100 nM.

As to `CC(O)COC(c1ccc(-c2nccs2)c2oc(N3CC4CC(C3)N4)nc12)C(F)(F)F` (stereo not shown) [Example 261, 1-(1-(2-(3,6-Diazabicyclo[3.1.1]heptan-3-yl)-7-(thiazol-2-yl)benzo[d]oxazol-4-yl)-2,2,2-trifluoroethoxy)propan-2-ol], the IC50 is < 100 nM.

In the case of `O=C(c1cc(-c2nccs2)c2oc(N3CC4CCC(C3)N4)nc2c1OC(F)(F)F)N1CC(O)(C(F)(F)F)C1` [Example 194, (2-(3,8-Diazabicyclo[3.2.1]octan-3-yl)-7-(thiazol-2-yl)-4-(trifluoromethoxy)benzo[d]oxazol-5-yl)(3-hydroxy-3-(trifluoromethyl)azetidin-1-yl)methanone], the IC50 was in the range of 100 to 1000 nM.

Take `FC(F)(F)c1c(Cl)cc(-n2cccn2)c2oc(N3CC4CCC(C3)N4)nc12` [Example 15, 2-(3,8-Diazabicyclo[3.2.1]octan-3-yl)-5-chloro-7-(1H-pyrazol-1-yl)-4-(trifluoromethyl)benzo[d]oxazole]: the IC50 is < 100 nM. On the same count and under the same terms, next, `c1csc(-c2ccc(-c3nccs3)c3oc(N4CC5CCC(C4)N5)nc23)n1` [Example 85, 2-(3,8-Diazabicyclo[3.2.1]octan-3-yl)-4,7-di(thiazol-2-yl)benzo[d]oxazole]: < 100 nM; `CCOC(=O)c1cc(-c2nccs2)c2oc(N3CC4CCC(C3)N4)nc2c1OC(F)(F)F` [Example 186, Ethyl 2-(3,8-diazabicyclo[3.2.1]octan-3-yl)-7-(thiazol-2-yl)-4-(trifluoromethoxy)benzo[d]oxazole-5-carboxylate]: < 100 nM; `C[S+]([O-])c1cc(-c2nccs2)c2oc(N3CC4CCCC(C3)N4)nc2c1` (stereo not shown) [Example 44, 2-(3,9-Diazabicyclo[3.3.1]nonan-3-yl)-5-(methylsulfinyl)-7-(thiazol-2-yl)benzo[d]oxazole]: < 100 nM. For `FC(F)(F)c1cc(-c2nccs2)c2oc(N3CC4CC(C3)N4)nc2c1` [Example 52, 2-(3,6-Diazabicyclo[3.1.1]heptan-3-yl)-7-(thiazol-2-yl)-5-(trifluoromethyl)benzo[d]oxazole], the IC50 was < 100 nM. The same measure, in the same setting: next, `O=C(O)c1cc(-c2nccs2)c2oc(N3CC4CCC(C3)N4)nc2c1OC(F)(F)F` [Example 189, 2-(3,8-Diazabicyclo[3.2.1]octan-3-yl)-7-(thiazol-2-yl)-4-(trifluoromethoxy)benzo[d]oxazole-5-carboxylic acid]: 100 to 1000 nM. As for `CC(C)(O)c1ccc(-c2nccs2)c2oc(N3CC4CCC(C3)N4)nc12` [Example 247, 2-(2-(3,8-Diazabicyclo[3.2.1]octan-3-yl)-7-(thiazol-2-yl)benzo[d]oxazol-4-yl)propan-2-ol], the IC50 was < 100 nM.

Staying with this assay, now noted: scintillation proximity assay; class symbols; read-out: PDE4 Inhibitory Activity.
Consider `O=C(NCc1ccccc1)c1ccc(-c2nccs2)c2oc(N3CC4CC(C3)N4)nc12` [Example 361, N-benzyl-2-(3,6-diazabicyclo [3.1.1]heptan-3-yl)-7-(thiazol-2-yl) benzo oxazole-4-carboxamide], for which the IC50 is < 100 nM. On to `O=C(O)c1ccc(-c2nccs2)c2oc(N3CC4CC(C3)N4)nc12` [Example 366, 2-(3,6-diazabicyclo [3.1.1]heptan-3-yl)-7-(thiazol-2-yl)benzo[d] oxazole-4-carboxylic acid], for which the IC50 is 100 to 1000 nM.
